# Assay results: patent publication US7855205B2, “Pyrimidinyl substituted fused-pyrrolyl compounds useful in treating kinase disorders” (Janssen Pharmaceutica NV, priority 2004, dated 2010)
# Columns and labels:
# CDK1:Cyclin-B = molecular target: T1, CDK1:Cyclin-B (Homo sapiens, UniProt P06493); assay: CDK1 Screening Assay; assay type: biochemical; details: 33P-γ-ATP incorporation, 10 μM ATP
# T1 construct: purchased New England Biolabs, Beverly, Mass; 6020; host or cells: insect cells
# Protocol: (§1) A kinase reaction mixture was prepared containing 50 mM Tris-HCl pH=8, 10 mM MgCl2, 0.1 mM […], 1 mM DTT, 10 μM ATP, 0.025 μM biotinylated histone-HI peptide substrate and […] per well ^33P-γ-ATP (2000-3000 Ci/mmol). 70 μL of the kinase reaction mixture was dispensed into the well of a streptavidin coated FlashPlate™ (Cat. # SMP103, NEN, Boston, Mass.). Then 1 μL of test compound stock in 100% DMSO was added to the wells resulting in a final concentration of 1% DMSO in the reaction with a 100 μL final reaction volume.
# (§2) The CDK1:Cyclin-B protein was then diluted in 50 mM Tris-HCl pH=8.0, 0.1% BSA at a concentration of 1 ng per μL and 30 μL (30 ng enzyme per test well) was added to each well to initiate the reaction. The reaction was incubated for one hour at 30° C. At the end of the 1 h incubation, the reaction was terminated by aspirating the mixture from the plate and washing the wells twice with PBS containing 100 mM EDTA. The histone-H1 biotinylated peptide substrate became immobilized on the Flashplate™ and the incorporation of ^33P-γ-ATP was measured by reading the plate on a scintillation counter. Inhibition of the enzymatic activity of CDK1 was measured by observing a reduced amount of ^33P-γ-ATP incorporated into the immobilized peptide.
# The CDK1 used was isolated from insect cells expressing both the human CDK1 catalytic subunit and its positive regulatory subunit cyclin B (New England Biolabs, Beverly, Mass., Cat. #6020).
# (§3) • VEGF-R2, HER2 and (Biotin)[…]-Amide • RET kinases • CDK1 (Biotin)[…]-Amide • Aurora-A kinase Biotin-[…]-Amide
# VEGF-R2 = molecular target: T2, VEGF-R2 (Rattus norvegicus, UniProt O08775); assay: VEGF-R2 Screening Assay; assay type: biochemical; details: 33P-γ-ATP incorporation, 10 μM ATP
# T2 construct: polyhistidine (N)
# Protocol: as §2, with “Then 1 μL of test compound stock in 100% DMSO was added to the wells resulting in a final concentration of 1% DMSO in the reaction with a 100 μL final reaction volume. The CDK1:Cyclin-B” for “The CDK1:Cyclin-B”, “immobilized peptide. The VEGF-R kinase assay was carried out using the CDK kinase assay procedure except that the enzyme was replaced with the VEGF-R2 fusion protein containing a polyhistidine tag at the N-terminus followed by amino acids 786-1343 of the rat VEGF-R2 kinase domain (GenBank Accession #U93306).” for “immobilized peptide.”
# Aurora-A = molecular target: T3, Aurora-A (Mus musculus, UniProt P97477); assay: Aurora-A Screening Assay; assay type: biochemical, murine; details: 33P-γ-ATP incorporation, 10 μM ATP
# T3 construct: made in house; host or cells: sf9 insect cells
# T3 sequence (P97477 1-395): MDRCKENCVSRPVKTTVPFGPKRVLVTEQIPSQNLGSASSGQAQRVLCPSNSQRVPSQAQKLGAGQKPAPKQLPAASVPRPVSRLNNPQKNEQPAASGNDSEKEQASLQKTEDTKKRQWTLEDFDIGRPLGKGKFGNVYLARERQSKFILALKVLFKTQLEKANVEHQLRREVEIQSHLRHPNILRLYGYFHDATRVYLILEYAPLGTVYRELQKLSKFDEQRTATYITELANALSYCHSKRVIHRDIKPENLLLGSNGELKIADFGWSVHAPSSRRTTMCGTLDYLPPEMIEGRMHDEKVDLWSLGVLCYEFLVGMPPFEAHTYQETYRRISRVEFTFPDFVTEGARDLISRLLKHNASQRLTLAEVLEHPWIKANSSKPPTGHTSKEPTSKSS
# Protocol: as §1, §2
# The Aurora-A kinase assay was carried out using the CDK kinase assay procedure except that the enzyme was replaced with the full length protein encoding the murine Aurora-A (Accession# GB BC014711) expressed and purified from sf9 insect cells.
# as §3
# [1] = test system: HeLa cervical adenocarcinoma; assay: Inhibition of cell proliferation (14C-thymidine incorporation), HeLa; assay type: cell-based; details: Homo sapiens;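 also: HeLa cells in 96-well scintillating plates, compound for 24 h then 24 h more with 14C-thymidine, counting label built into new DNA against DMSO-only control wells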
# HCT-116 colon carcinoma = assay: Inhibition of cell proliferation (14C-thymidine incorporation), HCT-116; assay type: cell-based; details: Homo sapiens, HCT-116, HCT116
# Protocol: (§4) The ability of a test compound to inhibit the proliferation of cell growth was determined by measuring incorporation of ^14C-labelled thymidine into newly synthesized DNA within the cells. This method was used on cell lines derived from carcinomas originating from several tissues such as HeLa cervical adenocarcinoma (American Type Culture Collection (ATCC), Virginia, Cat. #CCL-2), A375 malignant melanoma (ATCC CRL-1619), HCT-116 colon carcinoma (CCL-247). In this way the effect of a compound on cell growth of cells with many different phenotypes can be determined. Cells were trypsinized and counted and 3000-8000 cells were added to each well of a 96-well CytoStar tissue culture treated scintillating microplate (Amersham #RPNQ0160) in complete medium in a volume of 100 μL. Cells were incubated for 24 hours in complete medium at 37° C. in an atmosphere containing 5% CO2.
# (§5) Next, 1 μL of test compound in 100% DMSO was added to the wells of the plate. DMSO only was added to control wells. Cells were incubated for 24 more hours in complete medium at 37° C. in an atmosphere containing 5% CO2. Methyl ^14C-thymidine 56 mCi/mmol (NEN #NEC568 or Amersham #CFA532) was diluted in complete medium and 0.2 uCi/well was added to each well of the CytoStar plate in a volume of 20 μl. The plate was incubated for 24 hours at 37° C. plus 5% CO2 in drug plus ^14C-thymidine. The contents of the plate discarded into a ^14C radioactive waste container by inverting the plate and the plate was washed twice with 200 μL PBS.
# (§6) 200 μL of PBS is added to each well. The top of the plate was sealed with a transparent plate sealer and a white plate backing sealer (Packard #6005199) was applied to the bottom of the plate. The degree of methyl ^14C-thymidine incorporation was quantified on a Packard Top Count.
# A375 malignant melanoma = assay: Inhibition of cell proliferation (14C-thymidine incorporation), A375; assay type: cell-based, human; details: Homo sapiens, A-375
# Protocol: as §4, §5, §6
# T2 sequence (O08775 786-1343): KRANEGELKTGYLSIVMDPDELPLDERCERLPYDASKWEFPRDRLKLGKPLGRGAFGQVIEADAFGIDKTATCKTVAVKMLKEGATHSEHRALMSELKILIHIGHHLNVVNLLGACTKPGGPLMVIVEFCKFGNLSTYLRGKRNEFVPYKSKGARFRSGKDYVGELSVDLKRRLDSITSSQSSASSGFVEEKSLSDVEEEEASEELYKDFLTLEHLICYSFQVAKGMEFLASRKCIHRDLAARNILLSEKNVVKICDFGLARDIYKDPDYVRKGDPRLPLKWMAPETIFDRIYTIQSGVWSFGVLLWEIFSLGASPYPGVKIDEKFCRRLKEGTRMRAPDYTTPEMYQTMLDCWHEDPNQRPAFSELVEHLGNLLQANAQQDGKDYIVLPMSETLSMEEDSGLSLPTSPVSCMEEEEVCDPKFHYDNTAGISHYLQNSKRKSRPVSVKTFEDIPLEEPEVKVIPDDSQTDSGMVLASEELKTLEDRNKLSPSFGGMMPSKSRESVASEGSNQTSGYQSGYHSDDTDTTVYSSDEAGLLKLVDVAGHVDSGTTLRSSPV
# T1 sequence (P06493 whole entry): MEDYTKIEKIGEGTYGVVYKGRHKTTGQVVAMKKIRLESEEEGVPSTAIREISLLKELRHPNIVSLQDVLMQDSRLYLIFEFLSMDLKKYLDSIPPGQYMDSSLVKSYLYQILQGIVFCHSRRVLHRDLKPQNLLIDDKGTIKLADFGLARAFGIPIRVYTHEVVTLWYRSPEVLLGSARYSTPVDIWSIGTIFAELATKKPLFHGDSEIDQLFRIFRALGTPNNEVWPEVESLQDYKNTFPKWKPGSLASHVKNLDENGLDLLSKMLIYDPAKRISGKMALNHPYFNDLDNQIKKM
# T1 sequence (P14635 whole entry partner): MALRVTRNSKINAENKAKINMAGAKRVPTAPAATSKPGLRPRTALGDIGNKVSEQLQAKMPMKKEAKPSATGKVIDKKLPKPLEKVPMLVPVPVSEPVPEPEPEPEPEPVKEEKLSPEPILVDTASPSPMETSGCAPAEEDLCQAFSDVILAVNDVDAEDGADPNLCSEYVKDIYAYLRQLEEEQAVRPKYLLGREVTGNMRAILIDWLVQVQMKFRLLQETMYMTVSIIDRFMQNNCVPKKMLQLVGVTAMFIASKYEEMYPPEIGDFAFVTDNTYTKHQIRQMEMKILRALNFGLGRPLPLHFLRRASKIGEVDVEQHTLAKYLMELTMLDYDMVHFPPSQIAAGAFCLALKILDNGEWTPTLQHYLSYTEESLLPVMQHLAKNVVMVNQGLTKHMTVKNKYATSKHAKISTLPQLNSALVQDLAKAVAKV
IC50 (CDK1:Cyclin-B),IC50 (VEGF-R2),IC50 (Aurora-A),IC50 [1],IC50 (HCT-116 colon carcinoma),IC50 (A375 malignant melanoma),SMILES
0.001 µM,1.14 µM,0.408 µM,0.000993 µM,0.000542 µM,0.0467 nM,"Cc1ccc(Nc2nccc(-c3c[nH]c4ncccc34)n2)c(C)c1 [Cpd 33, (2,4-Dimethylphenyl)-[4-(1H-pyrrolo[2,3-b]pyridin-3-yl)-pyrimidin-2-yl]-amine]"
0.0063 µM,1.64 µM,0.182 µM,0.0101 µM,0.0132 µM,42 nM,"Cc1cc(Br)ccc1Nc1nccc(-c2c[nH]c3ncccc23)n1 [Cpd 41, (4-Bromo-2-methylphenyl)-[4-(1H-pyrrolo[2,3-b]pyridin-3-yl)-pyrimidin-2-yl]-amine]"
0.014 µM,2.08 µM,0.263 µM,0.031 µM,0.032 µM,33 nM,"c1cnc2[nH]cc(-c3ccnc(NC4CCCCC4)n3)c2c1 [Cpd 13, Cyclohexyl-[4-(1H-pyrrolo[2,3-b]pyridin-3-yl)-pyrimidin-2-yl]-amine]"
0.0028 µM,3.57 µM,0.374 µM,0.00598 µM,0.00762 µM,6.16 nM,"OCC[C@H]1CC[C@H](Nc2nccc(-c3c[nH]c4ncccc34)n2)CC1 [Cpd 77, trans-2-{4-[4-(1H-pyrrolo[2,3-b]pyridin-3-yl]-pyrimidin-2-ylamino]-cyclohexyl}-ethanol]"
0.056 µM,1.97 µM,1 µM,0.392 µM,0.381 µM,403 nM,"FC(F)(F)c1ccccc1Nc1nccc(-c2c[nH]c3ncccc23)n1 [Cpd 29, (2-trifluoromethylphenyl)-[4-(1H-pyrrolo[2,3-b]pyridin-3-yl)-pyrimidin-2-yl]-amine]"
0.004 µM,0.618 µM,0.238 µM,0.0114 µM,0.00137 µM,15.7 nM,"Cc1cccc(Nc2nccc(-c3c[nH]c4ncccc34)n2)c1C [Cpd 34, (2,3-Dimethylphenyl)-[4-(1H-pyrrolo[2,3-b]pyridin-3-yl)-pyrimidin-2-yl]-amine]"
0.062 µM,0.55 µM,0.437 µM,0.291 µM,0.379 µM,251 nM,"c1cnc2[nH]cc(-c3ccnc(N[C@H]4CC5CCC4C5)n3)c2c1 (stereo partly drawn) [Cpd 59, (2S)-Bicyclo[2.2.1]hept-2-yl-[4-(1H-pyrrolo[2,3-b]pyridin-3-yl)-pyrimidin-2-yl]-amine]"
0.0498 µM,10 µM,1.68 µM,0.136 µM,0.0689 µM,155 nM,"CC(=O)N1CCC(Nc2nccc(-c3c[nH]c4ncccc34)n2)CC1 [Cpd 64, 1-{4-[4-(1H-pyrrolo[2,3-b]pyridin-3-yl)pyrimidin-2-ylamino]piperidin-1-yl}ethanone]"
0.109 µM,1.54 µM,0.566 µM,0.514 µM,0.222 µM,277 nM,"c1cnc2[nH]cc(-c3ccnc(N[C@@H]4CC5CCC4C5)n3)c2c1 (stereo partly drawn) [Cpd 58, (2R)-Bicyclo[2.2.1]hept-2-yl-[4-(1H-pyrrolo[2,3-b]pyridin-3-yl)-pyrimidin-2-yl]-amine]"
0.002 µM,1 µM,0.357 µM,0.0072 µM,0.00639 µM,4.5 nM,"COc1ccc(Nc2nccc(-c3c[nH]c4ncccc34)n2)c(C)c1 [Cpd 27, (4-Methoxy-2-methylphenyl)-[4-(1H-pyrrolo[2,3-b]pyridin-3-yl)-pyrimidin-2-yl]-amine]"
0.002 µM,7.88 µM,0.917 µM,0.00112 µM,0.000353 µM,0.743 nM,"N[C@H]1CC[C@H](Nc2nccc(-c3c[nH]c4ncccc34)n2)CC1 [Cpd 42, trans-N-[4-(1H-Pyrrolo[2,3-b]pyridin-3-yl)-pyrimidin-2-yl]-cyclohexane-1,4-diamine]"
0.151 µM,10 µM,0.636 µM,0.368 µM,0.41 µM,604 nM,"c1cnc2[nH]cc(-c3ccnc(NCC4CCCCC4)n3)c2c1 [Cpd 16, Cyclohexylmethyl-[4-(1H-pyrrolo[2,3-b]pyridin-3-yl)-pyrimidin-2-yl]-amine]"

SMILES,IC50 (CDK1:Cyclin-B),IC50 (VEGF-R2),IC50 (Aurora-A),IC50 [1],IC50 (HCT-116 colon carcinoma),IC50 (A375 malignant melanoma)
Cc1cc(CCN(C)C)ccc1Nc1nccc(-c2c[nH]c3ncccc23)n1 [Cpd 46],0.0016 µM,0.341 µM,0.466 µM,0.000963 µM,0.000545 µM,0.634 nM
"O[C@H]1CC[C@H](Nc2nccc(-c3c[nH]c4ncccc34)n2)CC1 [Cpd 18, trans-4-[4-(1H-Pyrrolo[2,3-b]pyridin-3-yl)-pyrimidin-2-ylamino]-cyclohexanol]",0.0076 µM,1.79 µM,0.335 µM,0.00161 µM,0.00225 µM,1.77 nM
